# Laboratory results reported in patent EP0389975A1, “Intranasal administration of physostigmine and arecoline” (priority 1989, dated 1990).
# Read-outs that look alike come from different tables or passages of the source.
# Legend:
# [1] = system: patients having Alzheimer presenile dementia; conditions: cited from earlier work
# [2] = Pharmacokinetics of physostigmine in rats after intravenous and intranasal administration
# Protocol: Male Lewis rats, each weighing approximately 300 grams were anesthesized with pentobarbital (50 mg/kg i.p.). The jugular vein was cannulated and attached to a syringe through a three way stopcock for blood collections. For nasal administration of physostigmine and arecoline, an incision was made in the neck of the animals and the trachea was cannulated with a polyethylene (PE) tube. A closed tube was inserted through the esophagus to the posterior part of the nasal cavity. The nasopalatine passage was closed with an adhesive agent to prevent drainage of the drug from the nasal cavity to the mouth. An aqueous solution of physostigmine hemi-sulfate (obtained from Sigma Chemical, St. Louis, Mo.) dose equivalent to 200 µg/kg of physostigmine base in a volume of 150 µl/kg was administered to the nasal cavity by means of a Hamilton syringe with PE tubing attached to the end. For arecoline hydrobromide (obtained from Sigma Chemical, St. Louis, MO.), an aqueous solution with a dose of 2 mg/kg was administered in a volume of 150 µl/kg. Blood samples (1 ml) were withdrawn through the jugular cannula and replaced with equal volume of fresh blood after each sampling as a function of time. For intravenous administration of physostigmine the same dose as nasal (200 µg/kg) in a volume of 1 ml/kg was injected through the femoral vein. For intramuscular arecoline hydrobromide, the dose was 1 mg/kg in a volume of 1 ml/kg injected into the biceps femoris. The blood samples were collected into heparinized test tubes. In the case of physostigmine the tubes also contained 50 µl of a 100 µg/ml neostigmine bromide (as a stabilizer for physostigmine). Plasma was separated immediately and stored frozen.
# The analytical method for physostigmine in plasma was a modification of that described in Brodie, et al., J. Chromatogr. 415, 423-431 (1987). Plasma samples (0.5 ml) were pipetted into extraction tubes, and 0.2 ml of an aqueous solution of 3,3-bis(4- pyridylmethyl)-1-phenyl indolin-2-one as an internal standard (1.5 µg/ml), 2 ml of ethylacetate and 0.2 ml of a 3.5% sodium carbonate solution were added. The tubes were shaken mechanically for 0.5 minute and centrifuged for 5 minutes. The organic layer was then transferred to 12 X 75 mm tubes, evaporated to dryness under a steam of nitrogen, and the residue was reconstituted in 0.2 ml acetonitrile. After mechanical shaking (2 minutes), aliquots (125 µl) were analyzed by High Performance Liquid Chromatography (HPLC) using a dual detection system, where detection of physostigmine was by a fluorimetric detector and detection of the internal standard was by an ultraviolet (u.v.) detector.
# Separation was achieved on a 25 cm x 4.6 mm reverse phase (Zorbax® C₈, Du Pont) column attached to a guard column with C₈ packing at ambient temperature The mobile phase contained 0.2 M ammonium acetate-acetonitrile (2:3), adjusted to pH 8.2-8.3 with triethylamine and was delivered at a flow rate of 1.5 ml/min. Detection of physostigmine was by fluorimetric detector (Spectroflow 980 Programmable Fluorescence Detector, Kratos) operated at excitation and emission wavelengths of 254 and 320 nm, respectively. Detection of the internal standard was by u.v. detector (Lambda-Max Model 481 LC Spectrophotometer, Waters instrument) set at 254 nm. […] The other components of the HPLC system were a Waters 590 Programmable HPLC pump, an autosampler (Waters WISP 710B) and a recording integrator (Hewlett-Packard Model 3393A).
# [3] = In situ-in vivo nasal study: dosing in one nostril and washing out from the other; design: species or system rats; conditions: after 15 minutes of dosing in one nostril
# [4] = Pharmacokinetics of arecoline in rats after intranasal and intramuscular administration; format: in vivo, Male Lewis rats; conditions: for Tmax / half-life / AUC / Cmax: male, Lewis, rat, plasma; for AUC / Cmax: n=3 rats
# Protocol: (§1) The blood samples were collected into heparinized test tubes. […] Plasma was separated immediately and stored frozen.
# The analytical method of arecoline in plasma was performed by gas-chromatography-mass spectrometry (GC-MS) after solvent extraction using a method similar to that described in Beil, et al., Drug Develop Res, 9, 203-212 (1986). Nicotine was used as an internal standard. In this method, 50µl of nicotine solution in chloroform (1.5 µg/ml and 50 µl of 10% triethylamine in chloroform were added to 0.5 ml cold plasma in a 5 ml test tube with a screw cap. The tubes were vortexed for 1 minute and centrifuged for 10-15 minutes. The organic layer was then removed, placed in a micro vial and sealed with perfluoroethylene tape such as Teflon®, until analysis.
# GC-MS analysis was performed using an HP-1 column, (crosslinked methyl silicon, 12 m x […] x 0.33 µm film thickness). Two µl aliquots were injected onto the column in a splitless mode. Helium was used as a carrier gas. Detection was accomplished using a gas chromatograph electron impact mass selective detector set at m/z=155 and 162. The limit of arecoline detection was 15 ng/ml.
# normal human subjects = conditions: cited from earlier work
# [5] = cited from earlier work
# rats = assay: Survival of rats after arecoline administration by different routes; format: in vivo
# Protocol: as §1
# Plasma arecoline concentrations were determined after nasal and i.m. administration of the compound. After intranasal administration, arecoline was absorbed very rapidly (tmax= 3 +/- 1.6 min), faster than after i.m. administration (tmax=13.3 +/- 6.2 min). […] It is not known why absorption after i.m. was slower. […] Bolus i.v. studies were also performed, but the rats died. […]
# [6] = male, Lewis, rat, plasma, inhaled or intranasal, 200 ug/kg
# [7] = im, 1 mg/kg, after i.m. administration
# [8] = im, Intramuscular, 1 mg/kg Arecoline HBr
# [9] = inhaled or intranasal, 2 mg/kg, after intranasal administration
# [10] = inhaled or intranasal, Intranasal, 2 mg/kg Arecoline HBr
smiles,measurement,setting,value
CNC(=O)Oc1ccc2c(c1)[C@]1(C)CCN(C)[C@@H]1N2C [physostigmine],picture recognition tests,[1]; 0.25 mg and 0.75 mg doses,trend toward improvement
same,picture recognition tests,[1]; intravenous administration of 0.375 mg,improvement
same,Tmax,"[2]; Nasal, 200 µg/kg, n = 7 rats (Table 1)",6.5 ± 1.7 min
same,AUC,[2]; [6],38.9 ng·h/mL
same,Cmax,[2]; [6],86 ± 5 ng/mL
same,Tmax,[2]; [6],6.5 min
same,half-life,[2]; [6],36 ± 16 min
same,AUC,"[2]; male, Lewis, rat, plasma, iv, 200 ug/kg",40.2 ng·h/mL
same,bioavailability,"[2]; male, Lewis, rat, plasma, iv, 200 µg/kg",97%
COC(=O)C1=CCCN(C)C1 [arecoline],residual arecoline in the nose,[3],no residual arecoline
same,Tmax,"[4]; im, 1 mg/kg, Intramuscular, 1 mg/kg Arecoline HBr, n=3 rats (Table 2)",5.43 min
same,Tmax,[4]; [7],13.3 min
same,half-life,[4]; [7],5.4 ± 1.1 min
same,AUC,[4]; [8],77.7 ng·h/mL
same,Cmax,[4]; [8],249 ± 22 ng/mL
same,Tmax,"[4]; inhaled or intranasal, 2 mg/kg, Intranasal, 2 mg/kg Arecoline HBr, n=3 rats (Table 2)",3 min
same,Tmax,[4]; [9],3 min
same,half-life,[4]; [9],2 ± 0.6 min
same,AUC,[4]; [10],141 ng·h/mL
same,Cmax,[4]; [10],1750 ± 523 ng/mL
same,Bioavilability,[4]; ratio of AUC (nasal/intramuscular) X 100,85%
same,picture recognition tests,[1]; 2 mg doses,trend toward improvement
same,picture recognition tests,[1]; intravenous administration of 4 mg,improvement
same,serial learning,normal human subjects,significantly enhanced
same,bioavailability upon oral administration,[5],not bioavailable
same,death of rats,rats; bolus i.v.,the rats died
same,death of rats,rats; i.m. administration,None of the rats died
same,death of rats,rats; intranasal administration,None of the rats died
